From US4157396A, “Hydroxamic acid derivatives and medicaments for treatment of urolithiasis and pyelonephrosis comprising such derivatives” (Eisai Co., Ltd., priority 1976, dated 1979)
Read-outs that look alike come from different tables or passages of the source.

What was measured:
Proteus mirabilis OM-1 [1] = assay: Arrestment action to the calculus formation in the urine; type: cell-based; details: OM1, human urine with Proteus mirabilis OM-1, 24 hours, read-out: Arrest ratio to calculus formation (%), 24 hours; for inhibition at 200 µM: 2×10^-4 M; for inhibition at 1000 µM: 10^-3 M
Description: (§1) Solutions to be examined were prepared by collecting each 18 ml of fresh urine from a normal human, and adding the respective examination compounds to each of the urine to make their concentration of 10^-3 M in one group, and of 2×10^-4 in the other group. On the other hand, same solutions containing no examination compounds were prepared as blanks.
Proteus mirabilis OM-1, a urease-producing bacterium, was inoculated in said solutions, so that the number of the bacteria may amount to 10^6 cell/ml, and cultured at 37° C. After […] and 24 hours of the culture time, pH values of the solutions and amounts by weight of the formed and deposited calculus were measured. The arrestment ratio of calculus formation was calculated from said values.

[2] = Acute toxicity: remarks on the dissection; type: in vivo, rats of SD strain; details: for Remarks on the dissection, death examples: macroscopic observation at the time of death; for Remarks on the dissection, survivor example: rat, in vivo
Description: (§2) Eight week-old rats of SD strain (body weight: about 230 g for male and about 160 g for female) were used as the subject animals. The examination compounds were forcedly and orally administered in the following dosages, wherein 14 rats (7 male rats and 7 female rats, respectively) were used.
The dissection was performed, for the death examples, at the time of death and, for the survivor example, after killing by discharging the blood when the observation of the general conditions was finished. The organs in the thoracic cavity and the abdominal cavity were closely observed with a macroscopic manner.

[3] = Determination of the transfer rate into the urine and calculation of the index; type: in vivo, male rats of SD strain; details: rat, male SD rats, 100 mg/Kg oral, measured as urease inhibitory action in excreted urine; for dose excreted at 6 h: 0-6 hours; for dose excreted at 24 h: 6-24 hours
Description: (ii) Determination of the transfer rate into the urine
Transfer rates into the urine of the examination compounds were determined according to the method of Kobashi et al [Refer to Biochemistry (Japan) vol. 44, No. 5, pp. 187-204 (1972) and Yakugaku Zasshi vol. 12, pp. 1564-1572 (1973)] by using the male rats of SD strain having the body weight of about 280 g, administering orally each 100 mg/Kg of the compounds, and measuring the urease inhibitory action in the excreted urine within a specified period of time.
(iii) Calculation of the index
The index was calculated from the resulting values of the above examinations (i) and (ii) according to the following equation: [formula] wherein n is chosen appropriately depending on the value of I50.
The value of the index is referred to as a standard of the urease inhibitory power of the administered examination compound in the urine.
It is seen that the larger the value of the index is, the more effectively the examination compounds transfer into the urine with a form having the urease inhibitory action. Results of the determination

[4] = Acute toxicity (LD50), oral; details: rat, in vivo
Source text: The examination was achieved by orally administering the examination compounds into male rats of SD strain weighing about 230 g, respectively.

Proteus mirabilis OM-1 [5] = assay: Arrestment action to the calculus formation in the urine; type: cell-based; details: OM1, human urine with Proteus mirabilis OM-1, 8 hours, read-out: Arrest ratio to calculus formation (%), 8 hours; for inhibition at 200 µM: 2×10^-4 M; for inhibition at 1000 µM: 10^-3 M
[6] = Acute toxicity: observation of the general conditions; type: in vivo; details: for Number of death examples, Female / Number of death examples, Male: rat, in vivo
Source text: as §2

[7] = Examination of urine (Labstix test paper, amount, pH); type: in vivo, male SD strain rats; set-up: key to Protein in urine, hours 0-6 / Protein in urine, hours 6-24 / Glucose in urine, hours 0-6 / Glucose in urine, hours 6-24 / Ketone substances in urine, hours 0-6 / Ketone substances in urine, hours 6-24 / Occult blood in urine, hours 0-6 / Occult blood in urine, hours 6-24: (-); (±); (+); (++); (+++); details: 100 mg/Kg oral, male SD rats; for Ketone substances in urine, hours 0-6 / Occult blood in urine, hours 0-6 / Protein in urine, hours 0-6 / Glucose in urine, hours 6-24 / Ketone substances in urine, hours 6-24 / Occult blood in urine, hours 6-24 / Protein in urine, hours 6-24 / Glucose in urine, hours 0-6: Labstix; for Ketone substances in urine, hours 0-6 / Occult blood in urine, hours 0-6 / Protein in urine, hours 0-6: 0-6 hours; for Glucose in urine, hours 6-24 / Ketone substances in urine, hours 6-24 / Occult blood in urine, hours 6-24 / Protein in urine, hours 6-24: 6-24 hours; for Glucose in urine, hours 0-6: first collection period; for Amount and pH value of the urine: compared with the group given no examination compound
Description: To 5 male SD strain rats having the body weight of about 280 g in the respective groups, the examination compounds were forcedly and orally administered in a ratio of 100 mg/Kg in each time.
Natural urinations were respectively recovered 6 hours and 6-24 hours from the administration. As for control group wherein no examination compound is administered, natural urination was similarly recovered. Amount and pH value of the recovered urine were measured. Further, qualitative reaction concerning the respective items of protein, glucose, ketone substances, and occult blood in the urine was carried out by using Labstix text paper (manufactured and sold by Ames Company). Judgement was ranked as five levels, that is, (-), (±), (+), (++) and (+++).

Proteus mirabilis OM-1 [8] = assay: Arrestment action to alkalization of the urine; type: cell-based; details: normal human urine inoculated with Proteus mirabilis OM-1, 37° C.
Description: as §1
Proteus mirabilis OM-1, a urease-producing bacterium, was inoculated in said solutions, so that the number of the bacteria may amount to 10^6 cell/ml, and cultured at 37° C. […] The arrestment ratio of calculus formation was calculated from said values.

[9] = target: T1, Urease collected and purified from sword beans (Canavalia gladiata) (Canavalia gladiata, UniProt A0AAN9R4W0); assay: Determination of the urease inhibitory action; type: biochemical; details: read-out: 50% inhibitory concentration (M) of urease <I50>
T1 construct: single-chain plant urease, homohexamer by analogy with jack bean urease
Description: (i) Determination of the urease inhibitory action
Urease was collected and purified from sword beans (Canavalia gladiata) and mol concentrations of the examination compounds for inhibiting 50% of the activity of the urease were measured by the method of Kobashi et al [Refer to Biochim. Biophys. acta 227, 429-441 (1971)].

[10] = single forced oral dose, SD rats, 7 male and 7 female per dose
[11] = single forced oral dose, SD rats, all administration groups

T1 sequence (A0AAN9R4W0 entry or part of it): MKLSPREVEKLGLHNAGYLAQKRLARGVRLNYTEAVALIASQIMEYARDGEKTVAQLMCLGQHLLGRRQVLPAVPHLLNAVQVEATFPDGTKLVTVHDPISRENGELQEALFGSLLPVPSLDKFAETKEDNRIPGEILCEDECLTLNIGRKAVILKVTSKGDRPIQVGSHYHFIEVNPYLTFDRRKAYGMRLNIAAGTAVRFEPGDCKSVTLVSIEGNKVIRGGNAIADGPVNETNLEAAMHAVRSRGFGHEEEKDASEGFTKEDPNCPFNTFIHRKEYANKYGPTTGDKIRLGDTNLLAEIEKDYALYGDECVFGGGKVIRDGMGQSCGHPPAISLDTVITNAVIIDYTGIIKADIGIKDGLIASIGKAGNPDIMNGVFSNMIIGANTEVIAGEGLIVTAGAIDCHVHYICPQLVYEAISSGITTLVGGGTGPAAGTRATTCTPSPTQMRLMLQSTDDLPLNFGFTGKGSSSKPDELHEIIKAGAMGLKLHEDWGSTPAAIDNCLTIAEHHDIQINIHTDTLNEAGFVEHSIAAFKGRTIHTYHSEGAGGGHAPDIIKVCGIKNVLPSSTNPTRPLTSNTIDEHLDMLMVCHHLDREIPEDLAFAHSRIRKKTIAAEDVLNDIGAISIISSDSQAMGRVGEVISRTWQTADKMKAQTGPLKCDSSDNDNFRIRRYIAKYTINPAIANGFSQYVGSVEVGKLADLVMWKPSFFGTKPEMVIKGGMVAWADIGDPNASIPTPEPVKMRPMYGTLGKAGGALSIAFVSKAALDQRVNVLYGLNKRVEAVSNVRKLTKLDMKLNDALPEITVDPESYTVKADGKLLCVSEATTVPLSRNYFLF

Compound	inhibition at 200 µM (Proteus mirabilis OM-1 [1]) [%]	inhibition at 1000 µM (Proteus mirabilis OM-1 [1]) [%]	Remarks on the dissection, death examples [2]	Remarks on the dissection, survivor example [2]	dose excreted at 6 h [3] [%]	dose excreted at 24 h [3] [%]	LD50 ([4]; po) [mg/kg]	inhibition at 200 µM (Proteus mirabilis OM-1 [5]) [%]	inhibition at 1000 µM (Proteus mirabilis OM-1 [5]) [%]	Number of death examples, Female [6]	Number of death examples, Male [6]	Symptom [6, 10]	Baited amount [6, 11]	Ketone substances in urine, hours 0-6 [7]	pH value, time 8 hours (Proteus mirabilis OM-1 [8]; 2×10^-4 M)	pH value, time 24 hours (Proteus mirabilis OM-1 [8]; 2×10^-4 M)	pH value, time 0 hour (Proteus mirabilis OM-1 [8]; 10^-3 M)	pH value, time 8 hours (Proteus mirabilis OM-1 [8]; 10^-3 M)	pH value, time 24 hours (Proteus mirabilis OM-1 [8]; 10^-3 M)	IC50 [9] [M]	also measured
COc1ccc(C(=O)NCC(=O)NO)cc1 [Compound A, 2-(para-methoxy-benzamide)-acetohydroxamic acid]	32 ± 3.4	76.6 ± 6	Erosion was observed	No abnormality	12	0.83	> 5000	99 ± 1	96.2 ± 0.4	0/7	1/7	No change	No change	-	6.56±0.02	8.38±0.02	6.40±0.00	5.40±0.003	5.58±0.05	1.7e-06	Behaviour [6, 10]: No change; Occult blood in urine, hours 0-6 [7]: -; Protein in urine, hours 0-6 [7]: +; Glucose in urine, hours 6-24 [7]: -; Ketone substances in urine, hours 6-24 [7]: -; Occult blood in urine, hours 6-24 [7]: -; Protein in urine, hours 6-24 [7]: ±; Glucose in urine, hours 0-6 [7]: -; Amount and pH value of the urine [7]: there was not found the difference
COc1cccc(C(=O)NCC(=O)NO)c1 [Compound B, 2-(meta-methoxy-benzamide)-acetohydroxamic acid]	26.2 ± 5.7	79.1 ± 8.2	Erosion was observed	No abnormality	12.3	1.5	> 5000	87.5 ± 1.6	82 ± 9.2	3/7	2/7	Hair raising	No change	-	6.84±0.02	8.71±0.01	6.47±0.01	5.41±0.01	6.52±0.003	1.2e-06	Occult blood in urine, hours 0-6 [7]: -; Protein in urine, hours 0-6 [7]: +; Glucose in urine, hours 6-24 [7]: -; Ketone substances in urine, hours 6-24 [7]: -; Occult blood in urine, hours 6-24 [7]: -; Protein in urine, hours 6-24 [7]: ±; Glucose in urine, hours 0-6 [7]: -; Amount and pH value of the urine [7]: there was not found the difference; pH value, time 0 hour (Proteus mirabilis OM-1 [8]; 2×10^-4 M): 6.45±0.01
CC(=O)Nc1cccc(C(=O)NCC(=O)NO)c1 [Compound M, 2-(meta-acetylaminobenzamide)-acetohydroxamic acid]	38.8 ± 8	81.4 ± 5.6			15	0.6		80.1 ± 6.7	91.5 ± 5.1						7.96±0.02	8.70±0.00	6.78±0.02	6.79±0.01	7.08±0.03	2e-06	LD50 ([4]; oral, male SD rats about 230 g): > 5000 mg/kg
O=C(CNC(=O)c1ccco1)NO [Compound R, 2-(2-furoilamino)-acetohydroxamic acid]	28.4 ± 5.1	72.3 ± 8.3			15.5	0.68		85.6 ± 4.7	84.1 ± 5.5						6.65±0.02	8.52±0.01	6.46±0.00	5.42±0.01	6.98±0.02	1.3e-06	LD50 ([4]; oral, male SD rats about 230 g): > 5000 mg/kg; pH value, time 0 hour (Proteus mirabilis OM-1 [8]; 2×10^-4 M): 6.44±0.01
O=C(CNC(=O)c1ccc(Cl)cc1)NO [Control compound I, 2-(para-chloro-benzamide)-acetohydroxamic acid, reference compound]	30.6 ± 13.9	82.5 ± 8.5	Petechiae and ulcer	Blacking change and hypertrophy of spleen	1	0.5	> 5000	77.2 ± 9.1	69.7 ± 9	0/7	3/7	arantic change	Decrease	++	7.30±0.00	8.51±0.01	6.75±0.003	6.64±0.02	7.03±0.01	1e-06	Body Weight decrease on average [6, 11]: 10%; Occult blood in urine, hours 0-6 [7]: -; Protein in urine, hours 0-6 [7]: ++; Glucose in urine, hours 6-24 [7]: +++; Ketone substances in urine, hours 6-24 [7]: +++; Occult blood in urine, hours 6-24 [7]: -; Protein in urine, hours 6-24 [7]: +++; Glucose in urine, hours 0-6 [7]: +++; Amount and pH value of the urine [7]: there was not found the difference; pH value, time 0 hour (Proteus mirabilis OM-1 [8]; 2×10^-4 M): 6.79±0.01
